The text below walks through data of US20250144267A1, “USE OF POLYSACCHARIDE DERIVATIVE” (priority 2022, published 2025).

“Also recorded” adds a separate entry of the source.

Data set [1] is described as follows: Release test of PMX from HA-ABA-PMX (dialysis tube, PBS). The data set is classed as physicochemical. Here is the method:
The release behavior or PMX from HA-ABA-PMX at different pH values was investigated using a dialysis tube (MWCO: 1 kDa). 1 mL of an aqueous solution of the HA-ABA-PMX (1 mg/mL) obtained in Example II-2 above was placed in a dialysis tube, and shaken at 50 rpm while being incubated with 79 mL of PBS (37° C., pH=5.0, 6.0 7.4). The external solution (sustained release solution) was collected at specific time points, and new PBS was substituted for the entire amount. The drug concentration in the collected external solution (sustained release solution) was measured by UV-vis, and the release rate of the drug PMX was calculated.
For purposes of comparison as control tests, the same release test was also performed with the HA-ABA-PMX solution replaced by an aqueous solution of PMX (0.12 mg/mL) (Free PMX), a mixed solution of HA and PMX obtained by dissolving hyaluronic acid (HA) (1 mg/mL) and PMX (0.12 mg/mL) in water (Free PMX mixed with HA), and an aqueous solution of HA-ADH-PMX having the HA bound irreversibly to the PMX by amide bonds.

For data set [2], the system named is MeT-5A (human mesothelial cell line). Briefly: Cell toxicity evaluation (WST assay) of HA-ABA-PMX in MeT-5A. The data set is classed as cell-based. Particulars: PMX 10^−4 to 10 μg/mL, 48 hours. As for the experimental part:
(§1) As with the HA-ABA, the cell toxicity of HA-ABA-PMX in MeT-5A (human mesothelial cell line) and AB22 cells (mouse mesothelioma cells) was evaluated by WST assay.
(§2) Specifically, MeT-5A (human mesothelial cell line) and AB22 cells (mouse mesothelioma cells) were seeded on 24-well plates and incubated for 24 hours. The medium was then replaced with medium having HA-ABA-PMX dissolved at different PMX concentrations (10^−4 μg/mL, 10^−3 μg/mL, 10^−2 μg/mL, 10^−1 μg/mL, 1 μg/mL, 10 μg/mL). Cell viability (%) 48 hours after sample addition was then measured by WST-8 assay (Cell Counting Kit-8, Dojindo).
(§3) For purposes of comparison as a control test, cell toxicity was also evaluated using free PMX and HA-ADH-PMX in place of HA-ABA-PMX.

Data set [3] deals with AB22 cells (mouse mesothelioma cells). The data set is described as follows: Cell toxicity evaluation (WST assay) of HA-ABA-PMX in AB22. Particulars: PMX 10^−4 to 10 μg/mL, 48 hours. The data set is classed as cell-based. As for the experimental part:
as §1, §2, §3

Data set [4] is described as follows: Release test of Van from AL-ABA-Van solution (dialysis membrane, PBS). The data set is classed as physicochemical. Particulars: PBS pH 5.0, 6.0, 7.4, 37°C. Here is the method: The release behavior or Van from an AL-ABA-Van solution at different pH values was investigated using a dialysis membrane (pore size: 50 kDa). Specifically, 1 mL of an AL-ABA-Van solution of the AL-ABA-Van obtained in Example I-7 above dissolved in 3 mg/mL of pure water was injected into a dialysis membrane cut to 9 cm, and both ends of the dialysis membrane were tied with kite thread. This was placed in an 80 mL security container, 79 mL of PBS solution was added, and the mixture was stirred at the maximum rotational speed with a 1 cm stirrer tip in a 37° C. thermostatic tank. 1.0 mL samples were taken from the solution in the security container at specific time points (1, 2, 3, 4, 6, 8, 12, 24, and 48 hours). The sample solutions were subjected to UV-vis spectrum measurement, the drug concentration in the solutions was assayed based on absorbance, and the release rate of the drug Van (vancomycin release %) was calculated. The above measurements were conducted with pH 5.0, pH 6.0 and pH 7.4 PBS solutions (n=4 at each pH). […]

Data set [5] concerns AB22 cells (mouse mesothelioma cells). Briefly: Cell toxicity evaluation (WST assay) of HA-ABA-DOX in AB22. The data set is classed as cell-based. The conditions noted are these: DOX 10^−3 to 100 μg/mL, 48 hours. As for the experimental part:
As with the HA-ABA, the cell toxicity of HA-ABA-DOX in AB22 cells (mouse mesothelioma cells) was evaluated by WST assay.
Specifically, AB22 cells (mouse mesothelioma cells) were seeded on 24-well plates and incubated for 24 hours. The medium was then replaced with media having HA-ABA-PMX dissolved at different DOX concentrations (10^−3 μg/mL, 10^−2 μg/mL, 10^−1 μg/mL, 1 μg/mL, 10 μg/mL, 100 μg/mL). Cell viability (%) 48 hours after sample addition was then measured by WST-8 assay (Cell Counting Kit-8, Dojindo).
For purposes of comparison as a control test, cell toxicity was also evaluated using free DOX in place of HA-ABA-DOX.

In the case of `Nc1nc2[nH]cc(CCc3ccc(C(=O)N[C@@H](CCC(=O)O)C(=O)O)cc3)c2c(=O)[nH]1` [Free PMX, Pemetrexed, reference compound], the PMX release behavior result in data set [1] (PBS, 37°C) is on record as “almost all of the PMX was rapidly released within 2 hours”. For the same molecule, the “Cell growth inhibition effect (cell viability)” value (“Cell growth inhibition effect” for short) in data set [2] and in data set [3] was “dose-dependent cell growth inhibition effects” each time.

On to `CN[C@H](CC(C)C)C(=O)N[C@H]1C(=O)N[C@@H](CC(N)=O)C(=O)N[C@H]2C(=O)N[C@H]3C(=O)N[C@H](C(=O)N[C@H](C(=O)O)c4cc(O)cc(O)c4-c4cc3ccc4O)[C@H](O)c3ccc(c(Cl)c3)Oc3cc2cc(c3O[C@@H]2O[C@H](CO)[C@@H](O)[C@H](O)[C@H]2O[C@H]2C[C@](C)(N)[C@H](O)[C@H](C)O2)Oc2ccc(cc2Cl)[C@H]1O` [Van, Vancomycin], for which, in data set [4], the Van release behavior result is reported as “almost all of the Van was released in the first 10 hours”.

Turning to `COc1cccc2c1C(=O)c1c(O)c3c(c(O)c1C2=O)C[C@@](O)(C(=O)CO)C[C@@H]3O[C@H]1C[C@H](N)[C@H](O)[C@H](C)O1` [free DOX, Doxorubicin], the “Cell growth inhibition effect” value in data set [5] is recorded as “dose-dependent cell growth inhibition effects on AB22”.

“benzaldehyde-modified hyaluronic acid-pemetrexed conjugate [HA-ABA-PMX]”: the “PMX released (cumulative drug release)” value in data set [1] (PBS pH 5.0, 37°C, after 24 hours) is given as “more than 80%”. In addition, in data set [1] (PBS pH 7.4, 37°C, after 24 hours), the PMX not released was 40%. Moreover, the “Cell growth inhibition effect” value in data set [2] was “dose-dependent cell growth inhibition effects; also recorded: reduced cell viability at lower concentrations than the free PMX and the HA-ADH-PMX”; in data set [3], “dose-dependent cell growth inhibition effects; also recorded: reduced cell viability at lower concentrations than the free PMX and the HA-ADH-PMX”.
